According to US8952162B2, “Triazolopyridines as phosphodiesterase inhibitors for treatment of dermal diseases” (Leo Pharma A/S, priority 2008, dated 2015):

The molecules below were run against Human recombinant PDE4 (Genbank accession no NM—006203) (Homo sapiens, UniProt Q08499) (assay: PDE4 assay (SPA, cAMP cleavage)). Details: Example 52; human recombinant PDE4, 1 hour incubation, cAMP 1×10^-5M, test compound up to 10 μM; read-out: PDE4 IC50 range.
Format: biochemical
Protocol: At the end of the incubation, the cleavage of the substrate was evaluated by the binding of the AMP product to SPA beads, which generate chemoluminescence when bound to the radioactive tracer. The AMP product inhibited the binding of the radioactive tracer to the beads, and the luminescent signal was competed.

Sequence of Human recombinant PDE4 (Genbank accession no NM—006203) (Q08499 1-673 isoform Q08499-2): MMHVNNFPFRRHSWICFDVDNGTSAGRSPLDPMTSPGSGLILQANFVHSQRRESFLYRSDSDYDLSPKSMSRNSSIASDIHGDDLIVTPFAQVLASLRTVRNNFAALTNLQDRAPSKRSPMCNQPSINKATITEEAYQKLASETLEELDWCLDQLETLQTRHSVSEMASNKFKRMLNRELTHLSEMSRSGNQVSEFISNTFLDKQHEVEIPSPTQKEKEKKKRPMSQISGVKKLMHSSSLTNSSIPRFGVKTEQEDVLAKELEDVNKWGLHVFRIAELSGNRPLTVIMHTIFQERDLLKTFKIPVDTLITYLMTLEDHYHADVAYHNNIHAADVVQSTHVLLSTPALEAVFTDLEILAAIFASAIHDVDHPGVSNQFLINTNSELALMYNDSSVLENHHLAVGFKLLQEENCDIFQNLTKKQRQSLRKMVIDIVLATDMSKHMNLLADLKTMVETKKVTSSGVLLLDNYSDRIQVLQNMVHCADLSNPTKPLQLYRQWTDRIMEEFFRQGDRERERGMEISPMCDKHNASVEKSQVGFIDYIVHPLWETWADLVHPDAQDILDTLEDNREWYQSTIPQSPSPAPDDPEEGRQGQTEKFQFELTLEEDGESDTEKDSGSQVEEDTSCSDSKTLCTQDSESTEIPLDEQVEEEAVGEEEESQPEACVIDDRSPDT

`COc1ccc(-c2ccc(S(=O)(=O)NCCO)cc2)n2nc(C3CC3)nc12` [Compound 134, 4-(2-Cyclopropyl-8-methoxy-[1,2,4]triazolo[1,5-a]pyridin-5-yl)-N-(2-hydroxy-ethyl)-benzenesulfonamide] and `COc1ccc(-c2ccc(CNS(C)(=O)=O)cc2)n2nc(C3CC3)nc12` [Compound 130, N-[4-(2-Cyclopropyl-8-methoxy-[1,2,4]triazolo[1,5-a]pyridin-5-yl)-benzyl]-methanesulfonamide] cannot be ordered by IC50: over 1000 nM for the first, over 1000 nM for the second.

First: COc1ccc(-c2ccc(NC(C)=O)cc2)n2nc(C3CC3)nc12 [Compound 116, N-[4-(2-Cyclopropyl-8-methoxy-[1,2,4]triazolo[1,5-a]pyridin-5-yl)-phenyl]-acetamide]
Second: COc1ccc(-c2ccc(F)cc2)n2nc(C3CC3)nc12 [Compound 131, 2-Cyclopropyl-5-(4-fluoro-phenyl)-8-methoxy-[1,2,4]triazolo[1,5-a]pyridine]
The IC50 of the first is higher: over 1000 nM for the first, under 500 nM for the second. The second is the more potent here.

Same assay, conditions: Example 53; PDE4 assay as in example 52; read-out: PDE4 IC50 range

`COc1ccc(-c2cncc(C#N)c2)n2nc(C3(C(=O)NCC4CCCCC4)CC3)nc12` [Compound 185, 1-[5-(5-Cyano-pyridin-3-yl)-8-methoxy-[1,2,4]triazolo[1,5-a]pyridin-2-yl]-cyclopropanecarboxylic acid cyclohexylmethyl-amide] and `COc1ccc(-c2cncc(C#N)c2)n2nc(C3(COC(=O)N4CCCC4)CC3)nc12` [Compound 242, Pyrrolidine-1-carboxylic acid 1-[5-(5-cyano-pyridin-3-yl)-8-methoxy-[1,2,4]triazolo[1,5-a]pyridin-2-yl]-cyclopropylmethyl ester] cannot be ordered by IC50: under 500 nM for the first, under 500 nM for the second.

`COc1ccc(-c2ccc(C#N)cc2)n2nc(C3(C(=O)NCCS(N)(=O)=O)CC3)nc12` [Compound 207, 1-[5-(4-Cyano-phenyl)-8-methoxy-[1,2,4]triazolo[1,5-a]pyridin-2-yl]-cyclopropanecarboxylic acid (2-sulfamoyl-ethyl)-amide] and `CCCNC(=O)C1(c2nc3c(OC)ccc(-c4ccc(C#N)cc4)n3n2)CC1` [Compound 212, 1-[5-(4-Cyano-phenyl)-8-methoxy-[1,2,4]triazolo[1,5-a]pyridin-2-yl]-cyclopropanecarboxylic acid propylamide] cannot be ordered by IC50: under 500 nM for the first, under 500 nM for the second.

`COc1cc(-c2ccc(OC)c3nc(C4(C(=O)NCCS(C)(=O)=O)CC4)nn23)ccc1C#N` [Compound 177, 1-[5-(4-Cyano-3-methoxy-phenyl)-8-methoxy-[1,2,4]triazolo[1,5-a]pyridin-2-yl]-cyclopropanecarboxylic acid (2-methanesulfonyl-ethyl)-amide] and `COc1cc(-c2ccc(OC)c3nc(C4(C(=O)NC(C)C)CC4)nn23)ccc1C#N` [Compound 175, 1-[5-(4-Cyano-3-methoxy-phenyl)-8-methoxy-[1,2,4]triazolo[1,5-a]pyridin-2-yl]-cyclopropanecarboxylic acid isopropylamide] cannot be ordered by IC50: under 500 nM for the first, under 500 nM for the second.

`COc1ccc(-c2cccc(C(C)=O)c2)n2nc(C3(C(=O)NCCS(C)(=O)=O)CC3)nc12` [Compound 226, 1-[5-(3-Acetyl-phenyl)-8-methoxy-[1,2,4]triazolo[1,5-a]pyridin-2-yl]-cyclopropanecarboxylic acid (2-methanesulfonyl-ethyl)-amide] and `COc1ccc(-c2cccc(C(C)=O)c2)n2nc(C3(C(=O)NCc4ccccc4)CC3)nc12` [Compound 224, 1-[5-(3-Acetyl-phenyl)-8-methoxy-[1,2,4]triazolo[1,5-a]pyridin-2-yl]-cyclopropanecarboxylic acid benzylamide] cannot be ordered by IC50: under 500 nM for the first, under 500 nM for the second.

`COc1ccc(-c2cccc(C#N)c2)n2nc(C3(C(=O)NCc4cccnc4)CC3)nc12` [Compound 195, 1-[5-(3-Cyano-phenyl)-8-methoxy-[1,2,4]triazolo[1,5-a]pyridin-2-yl]-cyclopropanecarboxylic acid (pyridin-3-ylmethyl)-amide] and `COc1ccc(-c2cccc(C#N)c2)n2nc(C3(C(=O)NCCO)CC3)nc12` [Compound 228, 1-[5-(3-Cyano-phenyl)-8-methoxy-[1,2,4]triazolo[1,5-a]pyridin-2-yl]-cyclopropanecarboxylic acid (2-hydroxy-ethyl)-amide] cannot be ordered by IC50: under 500 nM for the first, under 500 nM for the second.

`CCNC(=O)C1(c2nc3c(OC)ccc(-c4ccc(C#N)cc4)n3n2)CC1` [Compound 211, 1-[5-(4-Cyano-phenyl)-8-methoxy-[1,2,4]triazolo[1,5-a]pyridin-2-yl]-cyclopropanecarboxylic acid ethylamide] and `COc1ccc(-c2ccc(C#N)cc2)n2nc(C3(C(=O)NCC#N)CC3)nc12` [Compound 215, 1-[5-(4-Cyano-phenyl)-8-methoxy-[1,2,4]triazolo[1,5-a]pyridin-2-yl]-cyclopropanecarboxylic acid cyanomethyl-amide] cannot be ordered by IC50: under 500 nM for the first, under 500 nM for the second.

`COc1ccc(-c2ccc(C#N)cc2)n2nc(C3(C(=O)NCCNC(C)=O)CC3)nc12` [Compound 216, 1-[5-(4-Cyano-phenyl)-8-methoxy-[1,2,4]triazolo[1,5-a]pyridin-2-yl]-cyclopropanecarboxylic acid (2-acetylamino-ethyl)-amide] and `COc1ccc(-c2ccc(C#N)cc2)n2nc(C3(C(=O)NCCN(C)S(C)(=O)=O)CC3)nc12` [Compound 220, 1-[5-(4-Cyano-phenyl)-8-methoxy-[1,2,4]triazolo[1,5-a]pyridin-2-yl]-cyclopropanecarboxylic acid [2-(methanesulfonyl-methyl-amino)-ethyl]-amide] cannot be ordered by IC50: under 500 nM for the first, under 500 nM for the second.

`COc1ccc(-c2ccc(C#N)cc2)n2nc(C3(C(=O)NCCC(=O)N4CCOCC4)CC3)nc12` [Compound 218, 1-[5-(4-Cyano-phenyl)-8-methoxy-[1,2,4]triazolo[1,5-a]pyridin-2-yl]-cyclopropanecarboxylic acid (3-morpholin-4-yl-3-oxo-propyl)-amide] and `CNC(=O)C1(c2nc3c(OC)ccc(-c4ccc(C#N)cc4)n3n2)CC1` [Compound 210, 1-[5-(4-Cyano-phenyl)-8-methoxy-[1,2,4]triazolo[1,5-a]pyridin-2-yl]-cyclopropanecarboxylic acid methylamide] cannot be ordered by IC50: under 500 nM for the first, under 500 nM for the second.

First: CCOC(=O)C1(c2nc3c(OC)ccc(-c4cccc(C#N)c4)n3n2)CC1 [Compound 188, 1-[5-(3-Cyano-phenyl)-8-methoxy-[1,2,4]triazolo[1,5-a]pyridin-2-yl]-cyclopropanecarboxylic acid ethyl ester]
Second: CCOC(=O)C1(c2nc3c(OC)ccc(-c4ccc(C#N)cc4)n3n2)CC1 [Compound 146, 1-[5-(4-Cyano-phenyl)-8-methoxy-[1,2,4]triazolo[1,5-a]pyridin-2-yl]-cyclopropanecarboxylic acid ethyl ester]
The IC50 of the first is lower: under 500 nM for the first, 500 to 1000 nM for the second. The first is the more potent here.

`COc1ccc(-c2cc(C#N)cc(CO)c2)n2nc(C3CC3)nc12` [Compound 168, 3-(2-Cyclopropyl-8-methoxy-[1,2,4]triazolo[1,5-a]pyridin-5-yl)-5-hydroxymethyl-benzonitrile] and `COc1ccc(-c2cncc(C#N)c2)n2nc(C3CC3)nc12` [Compound 159, 5-(2-Cyclopropyl-8-methoxy-[1,2,4]triazolo[1,5-a]pyridin-5-yl)-nicotinonitrile] cannot be ordered by IC50: under 500 nM for the first, under 500 nM for the second.

`COc1cc(-c2ccc(OC)c3nc(C4(COC(=O)NC(C)C)CC4)nn23)ccc1C#N` [Compound 235, Isopropyl-carbamic acid 1-[5-(4-cyano-3-methoxy-phenyl)-8-methoxy-[1,2,4]triazolo[1,5-a]pyridin-2-yl]-cyclopropylmethyl ester] and `CCCNC(=O)OCC1(c2nc3c(OC)ccc(-c4ccc(C#N)c(OC)c4)n3n2)CC1` [Compound 237, Propyl-carbamic acid 1-[5-(4-cyano-3-methoxy-phenyl)-8-methoxy-[1,2,4]triazolo[1,5-a]pyridin-2-yl]-cyclopropylmethyl ester] cannot be ordered by IC50: under 500 nM for the first, under 500 nM for the second.

Compared with `COc1ccc(-c2ccc(C#N)c(F)c2)n2nc(C3CC3)nc12` [Compound 165, 4-(2-Cyclopropyl-8-methoxyl-[1,2,4]-triazolo[1,5-a]pyridin-5-yl)-2-fluoro-benzonitrile], `COc1ccc(C2=NNC(=O)CC2C)n2nc(C3CC3)nc12` (stereo not drawn) [Compound 158, 6-(2-Cyclopropyl-8-methoxyl-[1,2,4]triazolo[1,5-a]pyridin-5-yl)-5-methyl-4,5-dihydro-2H-pyridazin-3-one] is higher in IC50: under 500 nM for the first, 500 to 1000 nM for the second. The first is the more potent here.

First: COc1ccc(-c2cccc(C#N)c2)n2nc(C3(CNC(=O)OC4CCCC4)CC3)nc12 [Compound 155, {1-[5-(3-Cyano-phenyl)-8-methoxyl-[1,2,4]triazolo[1,5-a]pyridin-2-yl]-cyclopropylmethyl}-carbamic acid cyclopentyl ester]
Second: COc1ccc(-c2cccc(C#N)c2)n2nc(C3(C(=O)N4CCCC4)CC3)nc12 [Compound 200, 3-{8-Methoxy-2-[1-(pyrrolidine-1-carbonyl)-cyclopropyl]-[1,2,4]triazolo[1,5-a]pyridin-5-yl}-benzonitrile]
The IC50 of the first is lower: under 500 nM for the first, 500 to 1000 nM for the second. The first is the more potent here.

`COc1cc(-c2ccc(OC)c3nc(C4(COC(=O)NC5CCCCC5)CC4)nn23)ccc1C#N` [Compound 241, Cyclohexyl-carbamic acid 1-[5-(4-cyano-3-methoxy-phenyl)-8-methoxy-[1,2,4]triazolo[1,5-a]pyridin-2-yl]-cyclopropylmethyl ester] and `COc1ccc(-c2cccc(C#N)c2)n2nc(C3(C(=O)NC(C)C)CC3)nc12` [Compound 194, 1-[5-(3-Cyano-phenyl)-8-methoxyl-[1,2,4]triazolo[1,5-a]pyridin-2-yl]-cyclopropanecarboxylic acid isopropylamide] cannot be ordered by IC50: under 500 nM for the first, under 500 nM for the second.

Work on `COc1ccc(-c2ccc3c(c2)CCC3=O)n2nc(C3(C(=O)NC(C)C)CC3)nc12` [Compound 181, 1-[8-Methoxy-5-(1-oxo-indan-5-yl)-[1,2,4]triazolo[1,5-a]pyridin-2-yl]-cyclopropanecarboxylic acid isopropylamide] yielded an IC50 of under 500 nM.
